From US6204293A, “Inhibitors of protein isoprenyl transferases” (University of Pittsburgh, priority 1998, dated 2001) come the findings set out here.

SMILES strings stand for the structures. Where a name gives a salt, the structure may show the parent alone.

What is called % inhibition is how much of the control response was suppressed. The inhibition is how much of the control response was suppressed.

The first test deals with T1, Rat brain protein farnesyltransferase (Rattus norvegicus, UniProt Q02293+Q04631).
T1 construct: Rat brain protein farnesyltransferase activity is measured; from tissue; host or cells: rat brain
T1 sequence (Q02293 whole entry, one chain of several): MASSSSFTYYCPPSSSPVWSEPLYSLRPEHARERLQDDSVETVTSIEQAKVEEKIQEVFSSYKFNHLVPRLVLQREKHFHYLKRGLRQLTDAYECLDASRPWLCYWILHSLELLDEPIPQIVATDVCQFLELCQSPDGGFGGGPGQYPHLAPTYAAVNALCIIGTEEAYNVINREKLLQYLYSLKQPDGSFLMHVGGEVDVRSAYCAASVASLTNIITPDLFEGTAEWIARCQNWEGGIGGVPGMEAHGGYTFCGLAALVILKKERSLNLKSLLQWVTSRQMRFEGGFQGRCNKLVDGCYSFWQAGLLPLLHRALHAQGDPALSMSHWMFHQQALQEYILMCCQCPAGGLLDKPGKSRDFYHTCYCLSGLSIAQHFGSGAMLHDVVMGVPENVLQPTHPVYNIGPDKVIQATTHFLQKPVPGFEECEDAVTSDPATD
Nature of the test: % inhibition of farnesylation, scintillation proximity assay with biotin-K Ras B fragment. The test is classed as biochemical. The note with it: Table 1; 1 × 10^-5 M. The essentials: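 Rat brain enzyme, purified through three steps, in a scintillation proximity assay kit with biotin-K Ras B fragment substrate at 0.1 mM final. Value is % inhibition of farnesylation.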
For orientation: SPA uses beads or plates that emit light when radiolabelled molecules are held near them.
With `CSCC[C@H](NC(=O)c1ccc(CN[C@H](CC2CCCCC2)[C@H](O)[C@H](O)CC(C)C)cc1-c1ccccc1)C(=O)O` [Example 715], the “% inhibition at 1 × 10^-5 M” value was found to be 67%.

For `COc1cc2c(cc1OC)C(CNCc1ccc(C(=O)N[C@@H](CCSC)C(=O)O)c(-c3ccccc3)c1)=CC(C1CCCCC1)C2` (stereo partly drawn) [Example 659], the “% inhibition at 1 × 10^-5 M” value was determined as 55%.

For the compound `CSCC[C@H](NC(=O)c1ccc(CNc2ccc3ncccc3c2)cc1-c1ccccc1)C(=O)O` [Example 708], the “% inhibition at 1 × 10^-5 M” value is recorded as 76%.

Turning to `COc1cc(I)c(C(=O)Nc2ccc(C(=O)N[C@@H](CCSC)C(=O)O)c(-c3ccccc3)c2)cc1OC` [Example 756], the “% inhibition at 1 × 10^-5 M” value is reported as 47%.

Staying with this test, now noted: Table 2; 1 × 10^-6 M.
For `CSCC[C@H](NC(=O)c1ccc(NC(=O)Cc2ccc(C)cc2)cc1-c1ccccc1C)C(=O)O` [Example 541], the “% inhibition at 1 × 10^-6 M” value is given as 37%.

Regarding `CSCC[C@H](NC(=O)c1ccc(CN(C(=O)OC(C)(C)C)C(CC2CCCCC2)CC2CCCCC2)cc1-c1ccccc1C)C(=O)O` [Example 886], the “% inhibition at 1 × 10^-6 M” value was 35%.

Consider `CSCC[C@H](NC(=O)c1ccc(CNCc2ccco2)cc1-c1ccccc1)C(=O)[O-].[Li+]` [Example 302], for which the “% inhibition at 1 × 10^-6 M” value is given as 31%.

`CSCC[C@H](NC(=O)c1ccc(CN[C@H](CO)Cc2ccccc2)cc1-c1ccccc1C)C(=O)O` [Example 727]: the “% inhibition at 1 × 10^-6 M” value is recorded as 95%.

Turning to `CSCC[C@H](NC(=O)c1ccc(CCc2cccc(-c3ccccc3)c2)cc1-c1ccccc1C)C(=O)[O-].[Li+]` [Example 793], the “% inhibition at 1 × 10^-6 M” value is 94%.

In the case of `CSCC[C@H](NC(=O)c1ccc(CNCCN2CCCC2)cc1-c1ccccc1)C(=O)O` [Example 641], the “% inhibition at 1 × 10^-6 M” value was 34%.

`CSCC[C@H](NC(=O)c1ccc(NC(=O)[C@@H](N)COCc2ccccc2)cc1-c1ccccc1)C(=O)O` [Example 503]: the “% inhibition at 1 × 10^-6 M” value was found to be 57%.

For `CSCC[C@H](NC(=O)c1ccc(S(=O)(=O)N(Cc2ccccc2)c2ccccc2)cc1-c1ccccc1C)C(=O)[O-].[Li+]` [Example 768], the “% inhibition at 1 × 10^-6 M” value amounted to 67%.

Turning to `CSCC[C@H](NC(=O)c1ccc(CCc2ccc3ccccc3c2)cc1-c1ccccc1C)C(=O)O` [Example 468], the “% inhibition at 1 × 10^-6 M” value is recorded as 96%.

In the case of `CSCC[C@H](NC(=O)c1ccc(CC(Cc2ccccc2)c2ccccc2)cc1-c1ccccc1C)C(=O)[O-].[Li+]` (stereo partly drawn) [Example 572], the “% inhibition at 1 × 10^-6 M” value worked out at 91%.

The test is the same for the next values; noted with them: Table 3; 1 × 10^-7 M.
`CSCC[C@H](NC(=O)c1ccc(CN(c2ccccc2)S(=O)(=O)c2ccc(C)cc2)cc1-c1ccccc1C)C(=O)O` [Example 770]: the “% inhibition at 1 × 10^-7 M” value stood at 91%.

`CSCC[C@H](NC(=O)c1ccc(CN2CCCC(OCC3CCCCC3)C2)cc1-c1ccccc1C)C(=O)O` (stereo partly drawn) [Example 990]: the “% inhibition at 1 × 10^-7 M” value was determined as 84%.

In the case of `CSCC[C@H](NC(=O)c1ccc(CN[C@@H](CO)CC2CCCCC2)cc1-c1ccccc1C)C(=O)O` [Example 618], the “% inhibition at 1 × 10^-7 M” value came to 89%.

Staying with this test, now noted: Table 4; 1 × 10^-8 M.
On to `CSCC[C@H](NC(=O)c1ccc(CN(CCC2CCCCC2)Cc2cncs2)cc1-c1ccccc1C)C(=O)O` [Example 986], for which the “% inhibition at 1 × 10^-8 M” value is recorded as 95%.

Consider `CCSC[C@H](CCc1ccccc1)NCc1ccc(C(=O)N[C@@H](CCSC)C(=O)O)c(-c2ccccc2C)c1` [Example 995], for which the “% inhibition at 1 × 10^-8 M” value came out at 92%.

The same test, now with this note: read-out: % inhibition at 0.01 μM (**).
Consider `CSCC[C@H](NC(=O)c1ccc(COC(CCC2CCCCC2)c2ccnnc2)cc1-c1ccccc1C)C(=O)O` (stereo partly drawn) [Example 1349, N-[4-(1-(Pyridazin-4-yl)-3-cyclohexylpropan-1-yloxymethyl)-2-(2-methylphenyl)benzoyl]methionine lithium salt], for which the inhibition at 0.01 µM worked out at 92%.

Staying with this test, now noted: read-out: % inhibition at 0.01 μM (**); Table 6; ** footnote 0.01 μM (title: 0.01 mM).
With `CCS(=O)(=O)C[C@H](CC1CCCCC1)OCc1ccc(C(=O)N[C@@H](CCSC)C(=O)O)c(-c2ccccc2C)c1` [Example 1311, N-[4-(3-Cyclohexyl-1-ethylsulfonylprop-2-yloxymethyl)-2-(2-methylphenyl)benzoyl]methionine Lithium Salt], the inhibition at 0.01 µM stood at 95%.

Turning to `CCCC[C@H](CC1CCCCC1)OCc1ccc(C(=O)N[C@@H](CCSC)C(=O)O)c(-c2ccccc2C)c1` [Example 1303, N-[4-(1-Cyclohexyl-2-hexyloxymethyl)-2-(2-methylphenyl)benzoyl]methionine Lithium Salt], the inhibition at 0.01 µM was found to be 91%.

The test is the same for the next values; noted with them: read-out: % inhibition at 0.1 μM (*).
Regarding `CCCOc1cccc(COCc2ccc(C(=O)N[C@@H](CCSC)C(=O)O)c(-c3ccccc3C)c2)c1` [Example 1209, N-[4-(3-(1-Propoxy)benzyloxymethyl)-2-(2-methylphenyl)benzoyl]methionine lithium salt], the inhibition at 0.1 µM was determined as 87%.

Staying with this test, now noted: read-out: % inhibition at 0.1 μM (*); Table 6; * footnote 0.1 μM (title: 0.1 mM).
Consider `CSCC[C@H](NC(=O)c1ccc(COCc2ccc(CO)cc2)cc1-c1ccccc1C)C(=O)O` [Example 1045, N-[4-(4-hydroxymethylbenzyloxymethyl)-2-(2-methylphenyl)benzoyl]methionine,lithium salt], for which the inhibition at 0.1 µM was determined as 86%.

Take `CSCC[C@H](NC(=O)c1ccc(CO[C@H](COCCC(C)(C)C)CC2CCCCC2)cc1-c1ccccc1C)C(=O)O` [Example 1309, N-[4-(3-Cyclohexyl-1-(3,3-dimethylbut-1-yloxy)prop-2-yloxymethyl)-2-(2-methylphenyl)benzoyl]methionine Lithium Salt]: the inhibition at 0.1 µM amounted to 96%.

For `CSCC[C@H](NC(=O)c1ccc(COC(Cc2ccccc2)C2CCN(S(=O)(=O)c3ccccc3)CC2)cc1-c1ccccc1C)C(=O)O` (stereo partly drawn) [Example 1253, N-[4-(2-phenyl-1-(4-(N-phenylsulfonyl)piperidinyl)ethyloxymethyl-2-(2-methylphenyl)benzoyl]methioninelithium salt], the inhibition at 0.1 µM was determined as 76%.

The test is the same for the next values; noted with them: read-out: % inhibition at 1 × 10^-6 M.
With `CSCC[C@H](NC(=O)c1ccc(CSCc2ccccc2C)cc1-c1ccccc1C)C(=O)O` [Example 557, N-[4-(2-methylbenzyl)thiomethyl-2-(2-methylphenyl)benzoyl]methionine, lithium salt], the inhibition at 1 µM was determined as 93%.

As to `CSCC[C@H](NC(=O)c1ccc(COC2CCN(C(=O)OC(C)(C)C)CC2)cc1-c1ccccc1C)C(=O)O` [Example 808, N-[4-(1-t-butoxycarbonylpiperidin-4-yloxymethyl)-2-(2-methylphenyl)benzoyl]methionine lithium salt], the inhibition at 1 µM came to 88%.

The test is the same for the next values; noted with them: read-out: % inhibition at 1 × 10^-6 M; Table 2; 1 × 10^-6 M.
For the compound `CSCC[C@H](NC(=O)c1ccc(CS(=O)(=O)Cc2ccccc2)cc1-c1ccccc1C)C(=O)O` [Example 555, N-[4-benzylsulfonylmethyl-2-(2-methylphenyl)benzoyl]methionine], the inhibition at 1 µM amounted to 85%.

On to `CSCC[C@H](NC(=O)c1ccc(Sc2ccc3ccccc3c2)cc1-c1ccccc1C)C(=O)O` [Example 497, N-[4-(naphth-2-ylthio)-2-(2-methylphenyl)benzoyl]methionine], for which the inhibition at 1 µM is 94%.

On to `CSCC[C@H](NC(=O)c1ccc(COCc2ccccc2)cc1-c1ccccc1C)C(=O)NS(=O)(=O)c1ccc(C)cc1` [Example 582, 4-methylbenzenesulfonyl N-2-[4-(benzyloxymethyl)-2-(2-methylphenyl)benzoyl]amino-4-methylthiobutanamide], for which the inhibition at 1 µM came to 99%.

Turning to `CSCC[C@H](NC(=O)c1ccc(COCCC23CC4CC(CC(C4)C2)C3)cc1-c1ccccc1C)C(=O)O` [Example 404, 4-[2-(1-adamantane)ethoxy]methyl-2(2-methylphenyl)benzoylmethionine lithium salt.], the inhibition at 1 µM is 98%.

Still in this test, the particulars now being: read-out: % inhibition at 1 × 10^-7 M.
As to `CSCC[C@H](NC(=O)c1ccc(COCc2cnc(-c3ccc(Cl)cc3)o2)cc1-c1ccccc1C)C(=O)O` [Example 894, N-[4-(2-(4-chlorophenyl)oxazol-5-ylmethoxymethyl)-2-(2-methylphenyl)benzoyl]methionine lithium salt], the inhibition at 0.1 µM came out at 89%.

With `CSCC[C@H](NC(=O)c1ccc(COCc2ccc(-c3cccc(C(F)(F)F)c3)o2)cc1-c1ccccc1C)C(=O)O` [Example 441, N-[4-(5-(3-trifluoromethylphenyl)furan-2-ylmethoxymethyl)-2-(2-methylphenyl)benzoyl]methionine lithium salt], the inhibition at 0.1 µM amounted to 91%.

In the case of `CSCC[C@@H](C(=O)O)N(C)C(=O)c1ccc(COCCCC2CCCCC2)cc1-c1ccccc1C` [Example 597, N-[4-(3-cyclohexylpropoxymethyl)-2-(2-methylphenyl)benzoyl]-N-methylmethionine lithium salt], the inhibition at 0.1 µM is 75%.

`COc1ccccc1COCc1ccc(C(=O)N[C@@H](CCSC)C(=O)O)c(-c2ccccc2C)c1` [Example 931, N-[4-(2-methoxybenzyloxymethyl)-2-(2-methylphenyl)benzoyl]methionine lithium salt]: the inhibition at 0.1 µM is 98%.

Still in this test, the particulars now being: read-out: % inhibition at 1 × 10^-7 M; Table 3; 1 × 10^-7 M.
Consider `COc1ccccc1CCOCc1ccc(C(=O)N[C@@H](CCSC)C(=O)O)c(-c2ccccc2C)c1` [Example 589, N-[4-(2-(2-methoxyphenyl)ethoxymethyl)-2-(2-methylphenyl)benzoyl]methioninelithium salt], for which the inhibition at 0.1 µM turned out to be 91%.

As to `CSCC[C@H](NC(=O)c1ccc(COCc2cnc(-c3ccc(F)cc3)s2)cc1-c1ccccc1C)C(=O)O` [Example 900, N-[4-(2-(4-fluorophenylthiazol-5-ylmethoxymethyl)-2-(2-methylphenyl)benzoyl]methioninelithium salt], the inhibition at 0.1 µM is 95%.

Still in this test, the particulars now being: read-out: % inhibition at 1 × 10^-8 M; Table 4; 1 × 10^-8 M.
As to `CSCC[C@H](NC(=O)c1ccc(CO[C@H](CSC)CC2CCCCC2)cc1-c1ccccc1C)C(=O)O` [Example 882, N-[4-(3-Cyclohexyl-1-methylthiopropan-2-yl)oxymethyl-2-(2-methylphenyl)benzoyl]methionine lithium salt], the inhibition at 0.01 µM was 79%.
